US20080051466A1, “Isoalpha acid based protein kinase modulation cancer treatment” (Metaproteomics, LLC, priority 2006, published 2008)

Tests used:
Assay in all cases: KinaseProfiler Assay
Type in all cases: biochemical
Bmx = Bmx (Homo sapiens, UniProt P51813); settings: 25 ug/ml; read-out: Bmx, % of Control
Fgr = Fgr (Homo sapiens, UniProt P09769); settings: read-out: Fgr, % of Control
MAPK1 = MAPK1 (Homo sapiens, UniProt P27361); settings: read-out: MAPK1, % of Control
MSK1 = MSK1 (Homo sapiens, UniProt O75582); settings: read-out: MSK1, % of Control
Fyn = Fyn (Homo sapiens, UniProt P06241); settings: read-out: Fyn, % of Control
CDK9/cyclin T1 = CDK9/cyclin T1 (Homo sapiens, UniProt P50750); settings: read-out: CDK9/cyclin T1, % of Control
TBK1 = target: T1, TBK1 (Homo sapiens, UniProt Q9UHD2); settings: read-out: TBK1, % of Control
T1 sequence (Q9UHD2 1-729): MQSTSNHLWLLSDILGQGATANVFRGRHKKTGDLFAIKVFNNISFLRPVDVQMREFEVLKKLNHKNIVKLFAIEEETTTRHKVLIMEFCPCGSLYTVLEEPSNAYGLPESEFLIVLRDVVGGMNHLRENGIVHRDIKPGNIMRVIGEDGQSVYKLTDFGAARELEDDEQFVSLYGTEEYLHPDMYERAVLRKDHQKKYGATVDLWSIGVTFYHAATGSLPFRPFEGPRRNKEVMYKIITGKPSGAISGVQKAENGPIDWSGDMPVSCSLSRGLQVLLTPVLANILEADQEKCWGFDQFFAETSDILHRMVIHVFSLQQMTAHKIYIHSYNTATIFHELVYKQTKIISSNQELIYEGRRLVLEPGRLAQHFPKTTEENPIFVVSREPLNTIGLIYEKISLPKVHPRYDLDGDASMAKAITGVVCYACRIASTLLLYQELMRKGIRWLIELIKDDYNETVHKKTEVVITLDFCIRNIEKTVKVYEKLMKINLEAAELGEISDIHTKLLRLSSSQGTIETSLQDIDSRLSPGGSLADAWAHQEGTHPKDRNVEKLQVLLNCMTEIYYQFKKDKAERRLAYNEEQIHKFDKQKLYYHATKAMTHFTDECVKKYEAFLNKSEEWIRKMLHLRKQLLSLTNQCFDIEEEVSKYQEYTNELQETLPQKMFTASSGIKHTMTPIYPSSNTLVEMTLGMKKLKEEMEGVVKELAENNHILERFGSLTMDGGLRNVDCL

HIPK3 = HIPK3 (Homo sapiens, UniProt Q9H422); settings: read-out: HIPK3, % of Control
GSK3α = GSK3α (Homo sapiens, UniProt P49840); settings: read-out: GSK3α, % of Control
MAPKAP-K2 = MAPKAP-K2 (Homo sapiens, UniProt P49137); settings: read-out: MAPKAP-K2, % of Control
CDK6/cyclinD3 = CDK6/cyclinD3 (Homo sapiens, UniProt Q00534); settings: read-out: CDK6/cyclinD3, % of Control
IKKβ = target: T2, IKKβ (Homo sapiens, UniProt O14920); settings: read-out: IKKβ, % of Control
T2 sequence (O14920 1-756): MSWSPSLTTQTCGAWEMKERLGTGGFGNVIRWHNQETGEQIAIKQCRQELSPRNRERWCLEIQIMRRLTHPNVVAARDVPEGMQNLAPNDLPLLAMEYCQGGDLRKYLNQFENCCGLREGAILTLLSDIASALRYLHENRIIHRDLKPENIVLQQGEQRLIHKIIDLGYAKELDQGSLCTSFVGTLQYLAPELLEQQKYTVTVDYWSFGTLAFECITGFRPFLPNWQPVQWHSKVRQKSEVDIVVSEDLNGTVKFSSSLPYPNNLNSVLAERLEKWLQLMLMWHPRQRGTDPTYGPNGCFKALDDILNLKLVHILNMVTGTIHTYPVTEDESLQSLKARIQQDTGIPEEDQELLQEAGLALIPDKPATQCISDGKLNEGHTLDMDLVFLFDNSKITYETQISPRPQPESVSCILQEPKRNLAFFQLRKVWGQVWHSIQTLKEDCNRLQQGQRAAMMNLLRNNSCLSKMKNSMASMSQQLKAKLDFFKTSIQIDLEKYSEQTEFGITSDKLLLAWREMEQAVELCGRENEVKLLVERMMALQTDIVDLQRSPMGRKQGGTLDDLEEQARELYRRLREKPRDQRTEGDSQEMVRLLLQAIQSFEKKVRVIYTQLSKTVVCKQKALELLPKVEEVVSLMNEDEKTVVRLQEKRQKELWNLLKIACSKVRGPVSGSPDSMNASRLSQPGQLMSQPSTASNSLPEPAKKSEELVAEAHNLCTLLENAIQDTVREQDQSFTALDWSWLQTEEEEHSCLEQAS

MSK1, sequence (O75582 whole entry): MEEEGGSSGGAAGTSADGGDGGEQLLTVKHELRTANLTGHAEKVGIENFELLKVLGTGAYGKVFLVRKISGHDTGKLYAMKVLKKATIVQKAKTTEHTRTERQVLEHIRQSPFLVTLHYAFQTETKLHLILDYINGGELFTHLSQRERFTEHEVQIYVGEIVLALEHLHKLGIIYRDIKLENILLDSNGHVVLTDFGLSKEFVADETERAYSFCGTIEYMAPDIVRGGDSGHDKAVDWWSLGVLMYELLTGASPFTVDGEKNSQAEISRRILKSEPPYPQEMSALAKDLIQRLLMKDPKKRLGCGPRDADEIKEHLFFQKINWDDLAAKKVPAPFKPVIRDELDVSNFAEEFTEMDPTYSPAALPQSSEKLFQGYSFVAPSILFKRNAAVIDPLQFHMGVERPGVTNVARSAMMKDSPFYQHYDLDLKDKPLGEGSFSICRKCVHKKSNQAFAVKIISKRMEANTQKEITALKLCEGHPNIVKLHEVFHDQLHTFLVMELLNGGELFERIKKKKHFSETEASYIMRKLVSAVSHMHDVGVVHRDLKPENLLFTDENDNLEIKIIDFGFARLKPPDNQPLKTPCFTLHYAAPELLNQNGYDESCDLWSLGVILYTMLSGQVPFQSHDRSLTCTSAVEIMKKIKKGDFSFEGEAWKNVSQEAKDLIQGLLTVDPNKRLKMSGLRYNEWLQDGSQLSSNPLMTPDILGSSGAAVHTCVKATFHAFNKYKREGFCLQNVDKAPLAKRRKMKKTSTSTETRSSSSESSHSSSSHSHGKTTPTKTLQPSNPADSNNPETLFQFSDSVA
MAPK1, sequence (P27361 whole entry): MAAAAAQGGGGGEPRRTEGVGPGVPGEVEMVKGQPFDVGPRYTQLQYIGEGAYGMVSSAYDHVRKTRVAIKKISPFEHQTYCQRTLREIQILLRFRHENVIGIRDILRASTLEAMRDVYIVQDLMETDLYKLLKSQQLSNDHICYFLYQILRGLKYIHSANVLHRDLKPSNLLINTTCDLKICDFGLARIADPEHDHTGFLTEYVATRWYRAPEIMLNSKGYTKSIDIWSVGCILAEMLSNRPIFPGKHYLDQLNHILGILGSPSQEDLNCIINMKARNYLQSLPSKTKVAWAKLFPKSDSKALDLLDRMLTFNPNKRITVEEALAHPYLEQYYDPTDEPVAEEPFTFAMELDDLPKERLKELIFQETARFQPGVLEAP
GSK3α, sequence (P49840 whole entry): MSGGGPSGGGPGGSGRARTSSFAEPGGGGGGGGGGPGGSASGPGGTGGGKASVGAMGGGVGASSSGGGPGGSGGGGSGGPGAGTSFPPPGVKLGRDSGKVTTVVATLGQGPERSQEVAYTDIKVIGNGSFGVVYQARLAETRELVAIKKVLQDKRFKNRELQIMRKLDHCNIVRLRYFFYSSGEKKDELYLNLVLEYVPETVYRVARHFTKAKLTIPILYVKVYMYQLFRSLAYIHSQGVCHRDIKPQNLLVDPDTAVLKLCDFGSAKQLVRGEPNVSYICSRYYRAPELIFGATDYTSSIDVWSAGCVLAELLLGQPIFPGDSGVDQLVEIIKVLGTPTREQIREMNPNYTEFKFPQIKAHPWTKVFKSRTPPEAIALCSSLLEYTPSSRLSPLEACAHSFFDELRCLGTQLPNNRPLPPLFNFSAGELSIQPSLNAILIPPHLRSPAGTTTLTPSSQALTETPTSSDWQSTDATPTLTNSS
Fyn, sequence (P06241 whole entry): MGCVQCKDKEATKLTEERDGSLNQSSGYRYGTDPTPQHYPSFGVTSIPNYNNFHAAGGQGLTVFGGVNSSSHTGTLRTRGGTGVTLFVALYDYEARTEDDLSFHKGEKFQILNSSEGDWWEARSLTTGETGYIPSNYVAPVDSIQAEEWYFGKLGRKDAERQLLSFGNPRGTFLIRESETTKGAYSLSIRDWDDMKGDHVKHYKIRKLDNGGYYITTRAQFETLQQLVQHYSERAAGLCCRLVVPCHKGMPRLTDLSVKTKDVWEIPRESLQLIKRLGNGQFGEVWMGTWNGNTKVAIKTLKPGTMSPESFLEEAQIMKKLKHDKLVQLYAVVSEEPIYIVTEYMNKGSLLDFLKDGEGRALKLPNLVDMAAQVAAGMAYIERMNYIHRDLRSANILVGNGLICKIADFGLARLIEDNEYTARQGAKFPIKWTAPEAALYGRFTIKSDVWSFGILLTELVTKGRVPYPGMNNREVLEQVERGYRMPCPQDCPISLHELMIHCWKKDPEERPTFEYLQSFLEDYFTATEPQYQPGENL
HIPK3, sequence (Q9H422 whole entry): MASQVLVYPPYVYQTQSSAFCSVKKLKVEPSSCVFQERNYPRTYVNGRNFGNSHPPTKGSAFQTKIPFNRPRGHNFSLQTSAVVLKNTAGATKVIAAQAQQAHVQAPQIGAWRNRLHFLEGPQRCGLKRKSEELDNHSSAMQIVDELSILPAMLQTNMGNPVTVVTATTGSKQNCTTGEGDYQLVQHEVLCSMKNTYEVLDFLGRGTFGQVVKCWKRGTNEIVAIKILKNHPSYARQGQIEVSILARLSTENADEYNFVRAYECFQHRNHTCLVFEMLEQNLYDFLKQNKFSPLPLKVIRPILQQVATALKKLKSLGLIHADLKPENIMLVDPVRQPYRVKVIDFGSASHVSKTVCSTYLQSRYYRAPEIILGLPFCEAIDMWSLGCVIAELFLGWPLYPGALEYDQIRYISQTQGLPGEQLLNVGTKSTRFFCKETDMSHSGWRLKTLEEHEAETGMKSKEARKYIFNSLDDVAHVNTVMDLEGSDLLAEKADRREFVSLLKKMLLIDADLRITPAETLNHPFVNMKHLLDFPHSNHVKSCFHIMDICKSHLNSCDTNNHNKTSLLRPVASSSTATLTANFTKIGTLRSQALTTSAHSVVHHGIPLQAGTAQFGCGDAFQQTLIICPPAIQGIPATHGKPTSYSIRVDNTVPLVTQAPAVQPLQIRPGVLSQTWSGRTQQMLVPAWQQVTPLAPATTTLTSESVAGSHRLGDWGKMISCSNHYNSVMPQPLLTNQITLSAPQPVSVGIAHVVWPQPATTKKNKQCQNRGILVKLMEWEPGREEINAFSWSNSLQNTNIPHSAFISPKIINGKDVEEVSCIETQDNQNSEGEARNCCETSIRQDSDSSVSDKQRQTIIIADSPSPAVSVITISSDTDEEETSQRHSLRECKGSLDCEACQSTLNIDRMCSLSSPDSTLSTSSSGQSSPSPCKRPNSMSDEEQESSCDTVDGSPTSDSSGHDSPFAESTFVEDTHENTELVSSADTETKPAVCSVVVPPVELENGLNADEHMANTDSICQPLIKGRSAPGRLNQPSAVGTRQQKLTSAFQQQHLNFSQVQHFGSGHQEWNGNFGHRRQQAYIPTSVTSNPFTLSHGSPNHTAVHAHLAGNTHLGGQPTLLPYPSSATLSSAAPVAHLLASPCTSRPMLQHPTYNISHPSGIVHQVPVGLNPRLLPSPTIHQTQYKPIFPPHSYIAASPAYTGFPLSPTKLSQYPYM
MAPKAP-K2, sequence (P49137 whole entry): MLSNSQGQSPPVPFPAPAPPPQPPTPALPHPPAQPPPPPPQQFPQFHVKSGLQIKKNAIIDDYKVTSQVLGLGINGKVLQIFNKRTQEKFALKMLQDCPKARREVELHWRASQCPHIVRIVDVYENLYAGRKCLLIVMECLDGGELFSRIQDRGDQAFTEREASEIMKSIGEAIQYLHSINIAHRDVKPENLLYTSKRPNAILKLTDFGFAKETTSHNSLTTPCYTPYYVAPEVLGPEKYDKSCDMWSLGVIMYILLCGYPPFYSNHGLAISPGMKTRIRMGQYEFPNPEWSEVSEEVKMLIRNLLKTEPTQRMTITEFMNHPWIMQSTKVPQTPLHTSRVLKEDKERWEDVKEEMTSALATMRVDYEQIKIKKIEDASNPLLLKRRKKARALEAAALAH
CDK6/cyclinD3, sequence (Q00534 whole entry): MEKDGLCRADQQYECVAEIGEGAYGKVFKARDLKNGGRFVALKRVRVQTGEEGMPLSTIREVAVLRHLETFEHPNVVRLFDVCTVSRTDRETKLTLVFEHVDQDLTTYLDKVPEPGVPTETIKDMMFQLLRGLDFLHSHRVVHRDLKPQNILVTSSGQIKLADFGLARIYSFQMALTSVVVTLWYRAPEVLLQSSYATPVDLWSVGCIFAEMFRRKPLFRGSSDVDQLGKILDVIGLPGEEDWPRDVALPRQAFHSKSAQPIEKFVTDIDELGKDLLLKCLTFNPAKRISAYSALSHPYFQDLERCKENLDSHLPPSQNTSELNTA
CDK6/cyclinD3, sequence (P30281 whole entry partner): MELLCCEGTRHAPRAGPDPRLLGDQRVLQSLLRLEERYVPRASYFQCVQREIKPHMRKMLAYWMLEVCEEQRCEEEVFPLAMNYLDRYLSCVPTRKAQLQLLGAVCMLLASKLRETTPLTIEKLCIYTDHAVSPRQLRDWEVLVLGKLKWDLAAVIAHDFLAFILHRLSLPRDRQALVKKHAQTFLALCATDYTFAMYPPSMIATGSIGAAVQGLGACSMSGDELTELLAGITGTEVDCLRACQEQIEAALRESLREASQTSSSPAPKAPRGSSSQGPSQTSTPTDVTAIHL
Fgr, sequence (P09769 whole entry): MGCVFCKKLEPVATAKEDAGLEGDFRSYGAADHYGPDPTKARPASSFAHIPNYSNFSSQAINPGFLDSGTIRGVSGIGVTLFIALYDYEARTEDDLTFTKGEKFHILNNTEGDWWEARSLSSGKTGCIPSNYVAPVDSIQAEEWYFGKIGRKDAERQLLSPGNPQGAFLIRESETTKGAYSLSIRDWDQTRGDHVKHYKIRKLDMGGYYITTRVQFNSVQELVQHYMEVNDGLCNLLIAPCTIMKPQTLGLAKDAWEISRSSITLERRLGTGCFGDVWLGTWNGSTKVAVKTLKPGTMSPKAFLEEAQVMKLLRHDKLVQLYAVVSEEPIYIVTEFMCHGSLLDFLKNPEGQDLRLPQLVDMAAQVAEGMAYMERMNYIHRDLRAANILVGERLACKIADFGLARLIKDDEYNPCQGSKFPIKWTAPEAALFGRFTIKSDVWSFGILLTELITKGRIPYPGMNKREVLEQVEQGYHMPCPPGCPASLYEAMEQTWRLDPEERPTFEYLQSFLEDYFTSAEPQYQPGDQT

In the case of `COc1cc(O)c(CC=C(C)C)c(O)c1C(=O)/C=C/c1ccc(O)cc1` [Xanthohumol, xanthohumol], the remaining activity at 25 µg/mL (Bmx) is reported as 22%, the remaining activity at 5 µg/mL (Fgr; 5 ug/ml) is reported as 36% and the remaining activity at 25 µg/mL (Fgr; 25 ug/ml) is reported as 10%. The remaining activity at 5 µg/mL (MAPK1; 5 ug/ml) was 64%, the remaining activity at 25 µg/mL (MAPK1; 25 ug/ml) was 19% and the remaining activity at 50 µg/mL (MAPK1; 50 ug/ml) was 17%. It also gave a remaining activity at 1 µg/mL (MSK1; 1 ug/ml) of 114%, a remaining activity at 5 µg/mL (MSK1; 5 ug/ml) of 92% and a remaining activity at 25 µg/mL (MSK1; 25 ug/ml) of 31%. For the same compound, the remaining activity at 1 µg/mL (Fyn; 1 ug/ml) was 104%, the remaining activity at 5 µg/mL (Fyn; 5 ug/ml) was 66% and the remaining activity at 25 µg/mL (Fyn; 25 ug/ml) was 42%. For the same compound, the remaining activity at 50 µg/mL (Fyn; 50 ug/ml) was 18%, the remaining activity at 1 µg/mL (CDK9/cyclin T1; 1 ug/ml) was 110% and the remaining activity at 5 µg/mL (CDK9/cyclin T1; 5 ug/ml) was 107%. The remaining activity at 25 µg/mL (CDK9/cyclin T1; 25 ug/ml) was 45%, the remaining activity at 50 µg/mL (CDK9/cyclin T1; 50 ug/ml) was 31% and the remaining activity at 1 µg/mL (TBK1; 1 ug/ml) was 104%. The remaining activity at 5 µg/mL (TBK1; 5 ug/ml) was 71%, the remaining activity at 25 µg/mL (TBK1; 25 ug/ml) was 45% and the remaining activity at 50 µg/mL (TBK1; 50 ug/ml) was 42%. The remaining activity at 1 µg/mL (HIPK3; 1 ug/ml) was 106%, the remaining activity at 5 µg/mL (HIPK3; 5 ug/ml) was 102% and the remaining activity at 50 µg/mL (HIPK3; 50 ug/ml) was 59%. It also gave a remaining activity at 1 µg/mL (GSK3α; 1 ug/ml) of 102%, a remaining activity at 25 µg/mL (GSK3α; 25 ug/ml) of 11% and a remaining activity at 50 µg/mL (GSK3α; 50 ug/ml) of -4%. For the same compound, the remaining activity at 1 µg/mL (MAPKAP-K2; 1 ug/ml) was 99%, the remaining activity at 5 µg/mL (MAPKAP-K2; 5 ug/ml) was 95% and the remaining activity at 25 µg/mL (MAPKAP-K2; 25 ug/ml) was 6%. For the same compound, the remaining activity at 50 µg/mL (MAPKAP-K2; 50 ug/ml) was 8%, the remaining activity at 1 µg/mL (CDK6/cyclinD3; 1 ug/ml) was 110% and the remaining activity at 5 µg/mL (CDK6/cyclinD3; 5 ug/ml) was 79%. For the same compound, the remaining activity at 25 µg/mL (CDK6/cyclinD3; 25 ug/ml) was 23%, the remaining activity at 50 µg/mL (CDK6/cyclinD3; 50 ug/ml) was 7% and the remaining activity at 1 µg/mL (IKKβ; 1 ug/ml) was 145%. For the same compound, the remaining activity at 5 µg/mL (IKKβ; 5 ug/ml) was 118%, the remaining activity at 25 µg/mL (IKKβ; 25 ug/ml) was 61% and the remaining activity at 50 µg/mL (IKKβ; 50 ug/ml) was 44%.
